According to patent US8226943B2, “Antibodies to notch receptors” (OncoMed Pharmaceuticals, Inc., priority 2008, dated 2012):

Experiments:
[1] = tested on: stroma of T1 tumors; experiment: Microarray gene expression in stroma of treated xenograft tumors, T1; format: in vivo, mice; conditions: 59R1 vs control
[2] = tested on: B51 breast tumor cells; experiment: B51 breast tumor recurrence after paclitaxel; format: in vivo, NOD-SCID mice; conditions: 59R1 10 mg/kg twice per week plus paclitaxel 15 mg/kg twice per week for 38 days, then antibody only
Protocol: B51 breast tumor cells (50,000 cells per mouse) were injected sub-cutaneously into the mammary fat pad of NOD-SCID mice. Tumors were allowed to grow for 50 days until they had reached an average volume of ˜100 mm^3. Animals were randomized (n=10/group) and treatments were initiated. One group received a control antibody (1B711) at 10 mg/kg twice per week and paclitaxel (Taxol) at 15 mg/kg twice per week and the other group received 59R1 at 10 mg/kg twice per week and paclitaxel at 15 mg/kg twice per week. Tumor volumes were measured on the indicated days. Treatments were carried out for 38 days until the tumor volumes had regressed to ˜50 mm^3, after which the paclitaxel treatments were halted and the antibody treatments continued for the duration of the experiment.

[3] = tested on: breast tumor xenograft line UM-T1; experiment: UM-T1 breast tumor xenograft growth; format: in vivo, NOD/SCID mice
Protocol: The 59R1 IgG2 antibody was also tested in vivo in the breast tumor xenograft lines OMP-B34, OMP-B39, OMP-B44, PE13, and UM-T1, the pancreas tumor xenograft line OMP-PN8, and the colon tumor xenograft line OMP-C8. These tumor xenograft lines were established by adhering to procedures described in Al-Hajj et al., 2003, Proc. Natl. Acad. Sci. USA, 100:3983-3988. Female NOD/SCID immuno-compromised mice 7-10 weeks old were used for the establishment of the breast tumor xenografts and male NOD/SCID mice were used for the OMP-Pn8 and OMP-C8 tumor-models (Harlan, Indianapolis, Ind.). The 59R1 IgG2 antibody was also tested in vivo in a Colo-205 colon tumor xenograft model. Female immunodeficient bg/nu XID mice on a Swiss CD-1 background were used for the Colo-205 xenograft tumor model. In case of the breast cancer models, slow-releasing estrogen pellets (0.36 mg) had to be implanted. Mice were subcutaneously injected on the right flank with 50,000 (OMP-B34, OMP-B39, OMP-B44, PE13, and UM-T1) or 1×10^7 (Colo-205) viable cells, respectively, in a mixture of PBS (without magnesium or calcium) and Matrigel at a 1:1 ratio. […] Antibodies were administered weekly and tumors measured twice weekly. […] Tumor volume was calculated as described Al-Hajj et al. (2003). Data are expressed as the mean and the mean±S.E.M. Group means were compared using Student's two-tailed, unpaired t-test. […]

[4] = tested on: B51 breast tumors; experiment: Limiting dilution assay of cancer stem cell frequency, B51 breast tumors; format: in vivo, NOD-SCID mice
Source text: Limiting dilution assays (LDAs) can be used to assess the effect of a Notch-binding agent on solid tumor cancer stem cells and on the tumorigenicity of a tumor comprising the cancer stem cells. The assays can be sued to determine the frequency of cancer stem cells in tumors from animals treated with the Notch-binding agent or other agent and to compare that frequency to the frequency of cancer stem cells in tumors from control animals.
An LDA was used to assess the effect on the tumorigenicity of the B51 breast tumors that were treated with the combination of control antibody (1B711) plus paclitaxel (Taxol) or treated with the combination of 59R1 and paclitaxel, as described above in Example 7. In addition, the effect of treatment of B51 breast tumors with the control antibody alone or 59R1 alone was also determined by LDA. The doses of antibodies and paclitaxel and the schedule of dosing for the control antibody group and the 59R1 group were the same as described in Example 7, above for the other two treatment groups. After three doses of antibodies and/or paclitaxel, tumors were harvested, processed and dissociated into single cells. The human tumor cells were isolated from the xenograft tumor cells by incubation with biotinylated mouse antibodies (α-mouse CD45-biotin1:200 dilution and rat α-mouse H2 Kd-biotin1:100 dilution, BioLegend, San Diego, Calif.) on ice for 30 min, followed by addition of streptavidin-labeled magnetic beads and removal of the mouse cells with the aid of a magnet. The human cells in the suspension were harvested and counted.
A serial titration of cells (30, 90, 270, and 810 cells) from each of the four treatment groups was injected in a 1:1 (v/v) mixture of FACS buffer and Matrigel into a new set of NOD-SCID mice (n=10/group). Tumors were allowed to grow for 72 days. The percentage of mice with detectable tumors was determined in all groups. The cancer stem cell frequency was then calculated using L-Calc™ software (StemCell Technologies Inc.; downloadable from www.stemcell.com/search/default.asp).

[5] = tested on: stroma of PE13 tumors; experiment: Microarray gene expression in stroma of treated xenograft tumors, PE13; format: in vivo, mice; conditions: 59R1 vs control
[6] = B51, combination of 59R1 and paclitaxel

59R1: human IgG2 antibody binding Notch2 and Notch3; heavy and light chain SEQ ID NO:16 and 18; ATCC PTA-9547
Fold 1416286_at (Rgs4) [1]: −1.13 | Fold 1417466_at (Rgs5) [1]: −1.99 | Fold 1417714_x_at (Hba-al/Hba-a2) [1]: 1.42 | Fold 1418829_a_at (Eno2) [1]: 1.29 | Fold 1419302_at (Heyl) [1]: −1.07 | Fold 1420872_at (Gucy1b3) [1]: −1.01 | Fold 1420941_at (Rgs5) [1]: −1.97 | Fold 1420942_s_at (Rgs5) [1]: −1.18 | Fold 1421964_at (Notch3) [1]: −1.01 | Fold 1422789_at (Aldh1a2) [1]: −2.16 | Fold 1428361_x_at (Hba-al/Hba-a2) [1]: 1.73 | Fold 1434141_at (Gucy1a3) [1]: 1.20 | Fold 1449280_at (Esm1) [1]: 1.18 | Fold 1449632_s_at (Fkbp10) [1]: 1.07 | Fold 1451501_a_at (Ghr) [1]: −1.12 | Fold 1452590_a_at (Plac9) [1]: 1.20 | Fold 1459713_s_at (Tmem16a) [1]: −2.14 | B51 tumor recurrence after paclitaxel treatment [2]: recur more rapidly in the control group compared with the group treated with 59R1 | T1 breast tumor growth ([3]; in the absence of estrogen treatment): ineffective | T1 breast tumor growth ([3]; in the presence of estrogen, 15 mg/kg once a week): effective at inhibiting tumor growth | reduction of cancer stem cell frequency relative to the control ([4]; B51, 59R1 alone): more than two-fold | reduction of cancer stem cell frequency relative to treatment with 59R1 alone [4, 6]: more than two-fold | reduction of cancer stem cell frequency relative to treatment with paclitaxel alone [4, 6]: about twelve-fold | reduction of cancer stem cell frequency relative to treatment with the control antibody [4, 6]: about 4.5 fold | Fold 1416286_at (Rgs4) [5]: −1.83 | Fold 1417466_at (Rgs5) [5]: −4.03 | Fold 1417714_x_at (Hba-al/Hba-a2) [5]: −1.92 | Fold 1418829_a_at (Eno2) [5]: 1.54 | Fold 1419302_at (Heyl) [5]: −1.77 | Fold 1420872_at (Gucy1b3) [5]: −3.06 | Fold 1420941_at (Rgs5) [5]: −2.99 | Fold 1420942_s_at (Rgs5) [5]: −4.23 | Fold 1421964_at (Notch3) [5]: −1.91 | Fold 1422789_at (Aldh1a2) [5]: −2.17 | Fold 1428361_x_at (Hba-al/Hba-a2) [5]: −1.73 | Fold 1434141_at (Gucy1a3) [5]: −4.18 | Fold 1449280_at (Esm1) [5]: 1.56 | Fold 1449632_s_at (Fkbp10) [5]: −1.63 | Fold 1451501_a_at (Ghr) [5]: −1.66 | Fold 1452590_a_at (Plac9) [5]: −1.62 | Fold 1459713_s_at (Tmem16a) [5]: −7.28
